From US4740233A, “Substituted 1,2,4-triazolo[1,5-a]-pyrimidine-2-sulfonamides and compositions and methods of controlling undesired vegetation and suppressing the nitrification of ammonium nitrogen in soil” (The Dow Chemical Company, priority 1986, dated 1988) come the findings set out here.

One experiment concerns sugar beet. Description: Preemergent control of plant species. The class given is in vivo, Beta saccharifera. The conditions noted are these: Beta vulgaris, pre-emergence, 336 h; 0.25 lb/acre; read-out: percent preemergent control. In outline: (§1)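 Growth reduction relative to untreated plants of the same species, assessed two weeks after treatment, defines the control value. Compositions, mostly aqueous emulsions, were deposited uniformly on seeded greenhouse soil beds at the tabulated rates, with a water-treated bed as reference.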

The next experiment has as its system barnyardgrass. Description: Preemergent control of plant species. Format: in vivo, Echinochloa crusgalli. Conditions: Echinochloa crus-galli, pre-emergence, 336 h; 0.25 lb/acre; read-out: percent preemergent control. In outline:
as §1

For the next experiment, the system named is rape. Description: Preemergent control of plant species. The class given is in vivo, Brassica napus. The conditions noted are these: Brassica napus, pre-emergence, 336 h; 0.25 lb/acre; read-out: percent preemergent control. An outline of the steps:
as §1

In a further experiment the test system is pigweed. Nature of the experiment: Preemergent control of plant species. Format: in vivo, Amaranthus spp. The conditions noted are these: Amaranthus retroflexus, pre-emergence, 336 h; 0.25 lb/acre; read-out: percent preemergent control. The method, then:
(§2) The seeds of various species of plants were planted in beds of good agricultural soil in a greenhouse. A number of compositions of the present invention, generally in the nature of an aqueous emulsion, were applied at rates listed in the table so as to deposit a predetermined amount of active ingredients uniformly throughout the surface of the bed. Another seed bed was treated only with water to serve as a control. After treatment the seed beds were maintained for two weeks under greenhouse conditions conducive for good plant growth and watered as necessary. Control refers to the reduction in growth compared to the observed results of the same untreated species.

A further experiment concerns johnson grass. Nature of the experiment: Preemergent control of plant species. Format: in vivo, Sorghum halepense. Conditions: Sorghum halepense, pre-emergence, 336 h; 0.25 lb/acre; read-out: percent preemergent control. An outline of the steps:
as §1

For the next experiment, the system named is corn. Nature of the experiment: Preemergent control of plant species. The class given is in vivo, Zea mays. Conditions: Zea mays, pre-emergence, 336 h; 0.25 lb/acre; read-out: percent preemergent control. An outline of the steps:
as §1

A further experiment relates to crabgrass. Nature of the experiment: Preemergent control of plant species. The class given is in vivo, Digitaria spp. Conditions: Digitaria sanguinalis, pre-emergence, 336 h; 0.25 lb/acre; read-out: percent preemergent control. The method, then: as §2
For another experiment, the system named is annual morning glory. Description: Preemergent control of plant species. Conditions: Ipomoea, pre-emergence, 336 h; 0.25 lb/acre; read-out: percent preemergent control. The class given is in vivo, Ipomoea spp. An outline of the steps:
as §1

In another experiment the test system is yellow foxtail. Description: Preemergent control of plant species. The class given is in vivo, Setaria lutescens. Conditions: Setaria, pre-emergence, 336 h; 0.25 lb/acre; read-out: percent preemergent control. In outline:
as §1

Another experiment has as its system cotton. Nature of the experiment: Preemergent control of plant species. The class given is in vivo, Gossypium spp. Conditions: Gossypium hirsutum, pre-emergence, 336 h; 0.25 lb/acre; read-out: percent preemergent control. In outline: as §1
The subject of another experiment is rice. Nature of the experiment: Preemergent control of plant species. The class given is in vivo, Oryza sativa. The conditions noted are these: Oryza sativa, pre-emergence, 336 h; 0.25 lb/acre; read-out: percent preemergent control. In outline: as §1
The subject of the next experiment is sorghum. Nature of the experiment: Preemergent control of plant species. The class given is in vivo, Sorghum vulgare. Conditions: Sorghum, pre-emergence, 336 h; 0.25 lb/acre; read-out: percent preemergent control. In outline:
as §1

Another experiment deals with jimsonweed. Description: Preemergent control of plant species. Format: in vivo, Datura stramonium. Conditions: Datura stramonium, pre-emergence, 336 h; 0.25 lb/acre; read-out: percent preemergent control. An outline of the steps:
as §1

For the next experiment, the system named is velvetleaf. Description: Preemergent control of plant species. Format: in vivo, Abutilon theophrasti. Conditions: Abutilon theophrasti, pre-emergence, 336 h; 0.25 lb/acre; read-out: percent preemergent control. An outline of the steps:
as §1

Experiment [1] concerns nitrification of ammonium nitrogen. Description: Suppression of nitrification of ammonium nitrogen in soil. The conditions noted are these: 27° C. In outline: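 Soil (20 g) moistened to its 1/3 bar tension value, mixed with test chemical and incubated sealed for two weeks at 27° C. Nitrate extracted with ammonium sulfate solution and measured by nitrate-specific ion electrode; value given as % NH4-N remaining.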

Another experiment concerns yellow nutsedge. Nature of the experiment: Preemergent control of plant species. The class given is in vivo, Cyperus esculentus. The conditions noted are these: Cyperus, pre-emergence, 336 h; 0.25 lb/acre; read-out: percent preemergent control. In outline:
as §1

The subject of another experiment is wheat. Description: Preemergent control of plant species. The class given is in vivo, Triticum aestivum. Conditions: Triticum aestivum, pre-emergence, 336 h; 0.25 lb/acre; read-out: percent preemergent control. An outline of the steps:
as §1

In the next experiment the test system is soybean. Nature of the experiment: Preemergent control of plant species. Conditions: Glycine max, pre-emergence, 336 h; 0.25 lb/acre; read-out: percent preemergent control. The class given is in vivo, Glycine max. In outline: as §1
A further experiment concerns wild oats. Description: Preemergent control of plant species. Format: in vivo. The conditions noted are these: Avena fatua, pre-emergence, 336 h; 0.25 lb/acre; read-out: percent preemergent control. In outline:
as §1

As to `Cc1nc2nc(S(=O)(=O)Nc3ccccc3C(F)(F)F)nn2c(C)c1C` [Compound 112], the plant injury at 280.212 g/ha in the experiment with sugar beet was found to be 99%; in the experiment with rape, 85%; with corn, 50%; in the experiment on cotton it was 80%; with rice, 25%; in the experiment with sorghum it was 20%. Further, the plant injury at 280.212 g/ha in the experiment with wheat and in the experiment on soybean was 0% throughout. For the same molecule, the pest or weed control at 280.212 g/ha in the experiment on barnyardgrass came out at 0%; in the experiment with pigweed it was 90%; in the experiment with johnson grass, 30%; with crabgrass it was 97%; in the experiment on annual morning glory, 80%; in the experiment with yellow foxtail, 0%. Further, the pest or weed control at 280.212 g/ha in the experiment with jimsonweed was 0%; in the experiment on velvetleaf, 20%; with yellow nutsedge it was 90%; in the experiment with wild oats, 90%. Moreover, the “% NH4-N Remaining After 2 Weeks Incubation” value in [1] (0.06 ppm) amounted to 31%; in experiment [1] (0.25 ppm), 53%; in experiment [1] (1 ppm), 65%; in [1] (4 ppm), 72%.

Take `Cc1cc(C)n2nc(S(=O)(=O)Nc3ccccc3C(N)=O)nc2n1` [Compound 37]: the plant injury at 280.212 g/ha in the experiment on sugar beet is 97%; with rape, 95%; in the experiment on corn, 95%; with cotton, 95%; with rice, 97%; with sorghum, 95%. The plant injury at 280.212 g/ha in the experiment with wheat is 0%; with soybean, 95%. In addition, the pest or weed control at 280.212 g/ha amounted to 97% in the experiment with barnyardgrass; 100% in the experiment on pigweed; 95% in the experiment with johnson grass; 70% in the experiment with crabgrass; 90% in the experiment with annual morning glory; 97% in the experiment on yellow foxtail. The pest or weed control at 280.212 g/ha with jimsonweed is 100%; with velvetleaf, 95%; with yellow nutsedge, 100%; in the experiment with wild oats, 0%. Besides, the “% NH4-N Remaining After 2 Weeks Incubation” value is given as 0% in experiment [1] (0.01 ppm), 0% in [1] (0.1 ppm), 7% in [1] (1 ppm) and 44% in experiment [1] (10 ppm).

Take `Cc1cccc(Cl)c1NS(=O)(=O)c1nc2nc(C)c(C)c(C)n2n1` [Compound 113]: the plant injury at 280.212 g/ha in the experiment on sugar beet worked out at 100%; in the experiment with rape, 90%; in the experiment on corn, 0%; in the experiment on cotton, 30%; with rice, 40%; in the experiment on sorghum it was 0%. In addition, the plant injury at 280.212 g/ha in the experiment with wheat and in the experiment with soybean was 0% throughout. For the same molecule, the pest or weed control at 280.212 g/ha in the experiment with barnyardgrass was 20%; in the experiment with pigweed, 100%; with johnson grass it was 50%; with crabgrass, 90%; with annual morning glory, 0%; in the experiment on yellow foxtail, 50%. For the same molecule, the pest or weed control at 280.212 g/ha with jimsonweed was 0%; in the experiment on velvetleaf, 60%; with yellow nutsedge, 50%; in the experiment on wild oats it was 0%. For the same molecule, the “% NH4-N Remaining After 2 Weeks Incubation” value in experiment [1] (0.06 ppm) is 16%; in [1] (0.25 ppm) it was 39%; in experiment [1] (1 ppm), 69%; in [1] (4 ppm) it was 86%.

On to `Cc1cc(C)n2nc(S(=O)(=O)Nc3cccc(Cl)c3Cl)nc2n1` [Compound 19], for which the plant injury at 280.212 g/ha in the experiment with sugar beet was found to be 90%; in the experiment with rape, 95%; in the experiment on corn it was 0%; in the experiment with cotton it was 90%; in the experiment on rice, 20%; with sorghum it was 0%. In addition, the plant injury at 280.212 g/ha with wheat amounted to 0%; in the experiment with soybean, 20%. The pest or weed control at 280.212 g/ha in the experiment on barnyardgrass was determined as 0%; with pigweed, 90%; in the experiment on johnson grass, 0%; in the experiment on crabgrass, 20%; in the experiment on annual morning glory, 50%; in the experiment with yellow foxtail, 0%. The pest or weed control at 280.212 g/ha with jimsonweed turned out to be 0%; with velvetleaf it was 70%; in the experiment with yellow nutsedge, 40%; with wild oats, 0%.

Regarding `COCc1cccc(Cl)c1NS(=O)(=O)c1nc2nc(C)cc(C)n2n1` [Compound 91], the plant injury at 280.212 g/ha in the experiment with sugar beet is 100%; in the experiment with rape, 100%; in the experiment with corn, 30%; in the experiment with cotton, 100%; with rice it was 50%; with sorghum it was 0%. The plant injury at 280.212 g/ha with wheat worked out at 20%; in the experiment on soybean it was 100%. Moreover, the pest or weed control at 280.212 g/ha amounted to 100% in the experiment with pigweed; 0% in the experiment with johnson grass; 40% with crabgrass; 100% with yellow foxtail; 40% in the experiment on jimsonweed; 70% in the experiment with velvetleaf. The pest or weed control at 280.212 g/ha in the experiment on wild oats amounted to 70%. Also, the “% NH4-N Remaining After 2 Weeks Incubation” value is given as 15% in [1] (0.06 ppm), 46% in experiment [1] (0.25 ppm), 55% in experiment [1] (1 ppm) and 80% in experiment [1] (4 ppm).

In the case of `Cc1cc(C)n2nc(S(=O)(=O)Nc3c(Cl)cc(F)cc3Cl)nc2n1` [Compound 44], the plant injury at 280.212 g/ha in the experiment with sugar beet came out at 97%; in the experiment on rape, 93%; in the experiment on corn, 10%; with cotton it was 85%; in the experiment on rice it was 70%; in the experiment on sorghum, 93%. Besides, the plant injury at 280.212 g/ha was found to be 70% with wheat and 80% with soybean. In addition, the pest or weed control at 280.212 g/ha in the experiment on barnyardgrass was 40%; in the experiment on pigweed, 95%; with johnson grass it was 80%; in the experiment with crabgrass, 90%; with annual morning glory, 20%; in the experiment with yellow foxtail, 70%. In addition, the pest or weed control at 280.212 g/ha was found to be 100% in the experiment with jimsonweed, 0% with velvetleaf, 90% with yellow nutsedge and 40% in the experiment on wild oats. For the same molecule, the “% NH4-N Remaining After 2 Weeks Incubation” value in [1] (0.01 ppm) amounted to 0%; in experiment [1] (0.1 ppm), 42%; in experiment [1] (1 ppm), 71%; in experiment [1] (10 ppm), 95%.
